Experiment [1] concerns the target T1, Dual specificity protein phosphatase 6 (Rattus norvegicus, UniProt Q64346).
T1 sequence (Q64346 whole entry): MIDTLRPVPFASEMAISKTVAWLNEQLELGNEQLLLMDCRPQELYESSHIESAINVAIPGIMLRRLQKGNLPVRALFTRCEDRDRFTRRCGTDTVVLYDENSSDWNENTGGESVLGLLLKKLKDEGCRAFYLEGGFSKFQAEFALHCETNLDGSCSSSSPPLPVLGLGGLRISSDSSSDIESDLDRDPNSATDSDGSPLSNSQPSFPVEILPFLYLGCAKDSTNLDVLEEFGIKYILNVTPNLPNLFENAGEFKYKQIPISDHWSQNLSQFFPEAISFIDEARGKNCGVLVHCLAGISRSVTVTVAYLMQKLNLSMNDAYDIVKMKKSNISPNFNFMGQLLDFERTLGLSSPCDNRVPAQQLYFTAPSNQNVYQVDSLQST
In kind it is functional.

For experiment [2], the target named is T1, Dual specificity protein phosphatase 6. Put plainly: MKP-3 phosphatase inhibitors, primary screen, biochemical, rat enzyme, in vitro (AID 425).
Experiment [3] deals with T2, ORF 73 (Human herpesvirus 8, UniProt O40947).
T2 sequence (O40947 whole entry): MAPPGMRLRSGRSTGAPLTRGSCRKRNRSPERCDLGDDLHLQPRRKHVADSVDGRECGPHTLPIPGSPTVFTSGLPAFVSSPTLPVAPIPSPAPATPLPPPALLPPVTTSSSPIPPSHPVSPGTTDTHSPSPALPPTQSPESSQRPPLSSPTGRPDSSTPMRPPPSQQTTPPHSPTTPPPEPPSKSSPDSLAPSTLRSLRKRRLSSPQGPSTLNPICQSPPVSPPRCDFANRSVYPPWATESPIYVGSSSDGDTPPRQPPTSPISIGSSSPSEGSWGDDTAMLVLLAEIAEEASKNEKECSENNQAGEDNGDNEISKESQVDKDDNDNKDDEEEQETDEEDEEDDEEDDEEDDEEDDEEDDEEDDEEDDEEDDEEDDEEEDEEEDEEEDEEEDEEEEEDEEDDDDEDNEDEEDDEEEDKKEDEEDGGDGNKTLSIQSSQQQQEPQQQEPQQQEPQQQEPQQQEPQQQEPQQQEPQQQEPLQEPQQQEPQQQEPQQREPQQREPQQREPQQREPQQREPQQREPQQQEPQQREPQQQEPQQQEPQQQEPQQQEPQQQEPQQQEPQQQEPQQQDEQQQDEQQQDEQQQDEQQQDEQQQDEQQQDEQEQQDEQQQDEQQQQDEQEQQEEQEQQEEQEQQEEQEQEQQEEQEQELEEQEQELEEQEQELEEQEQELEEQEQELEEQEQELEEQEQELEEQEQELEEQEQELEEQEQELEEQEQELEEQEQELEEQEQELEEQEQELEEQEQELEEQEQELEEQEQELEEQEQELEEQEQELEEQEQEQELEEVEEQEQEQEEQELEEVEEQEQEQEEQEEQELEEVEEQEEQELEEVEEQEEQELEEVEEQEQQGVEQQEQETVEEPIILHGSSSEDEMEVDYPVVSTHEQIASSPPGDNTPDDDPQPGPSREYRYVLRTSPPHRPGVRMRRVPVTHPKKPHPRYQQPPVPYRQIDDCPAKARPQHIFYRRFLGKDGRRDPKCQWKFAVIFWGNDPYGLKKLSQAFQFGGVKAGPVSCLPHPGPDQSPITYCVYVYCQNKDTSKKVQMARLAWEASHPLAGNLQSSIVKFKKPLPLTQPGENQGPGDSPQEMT
The experiment is described as follows: inhibitors of C-LANA binding to LBS DNA, dose response, biochemical, fluorescence polarization, cherry-picked samples (AID 504725).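 Further: fluorescence polarization of a labeled DNA duplex reporting LANA DNA binding; potency is for inhibitors that block LANA binding to the DNA.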 On the set-up: species or system Human gammaherpesvirus 8.

The target of experiment [4] is Large T antigen (Simian virus 40, UniProt P03070). In kind it is functional, Betapolyomavirus macacae.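 Further: Confirmatory-stage PubChem screen for compounds that inhibit SV40 T antigen.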
The target in experiment [5] is Nonstructural protein 1 (Influenza A virus, UniProt Q194T2). In kind it is functional, Influenza A virus (A/California/07/2009(H1N1)).
Experiment [6] addresses LIM domain kinase 1 (Homo sapiens, UniProt P53667). Put plainly: Navigating the Kinome. Panel member name: LIMK1. In kind it is functional.
Experiment [7] has as its target Calcium/calmodulin-dependent protein kinase type II subunit alpha (Homo sapiens, UniProt Q9UQM7). Put plainly: Navigating the Kinome. Panel member name: CAMK2A. In kind it is functional.
In experiment [8] the target is Fibroblast growth factor receptor 1 (Homo sapiens, UniProt P11362). In kind it is functional.
Experiment [9] concerns the target MAP kinase-activated protein kinase 2 (Homo sapiens, UniProt P49137). In kind it is functional.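 Further: measured as one member of a kinome-wide kinase panel.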
Experiment [10] deals with RAC-gamma serine/threonine-protein kinase (Homo sapiens, UniProt Q9Y243). In kind it is functional.
Experiment [11] has as its target Tyrosine-protein kinase Lyn (Homo sapiens, UniProt P07948). In kind it is functional.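 Further: lyn as one member of a kinase panel.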
Experiment [12] deals with Interleukin-1 receptor-associated kinase 4 (Homo sapiens, UniProt Q9NWZ3). In kind it is functional.

From ChEMBL document CHEMBL1201862, “PubChem BioAssay data set” (2004) come the findings set out here.

Calls of active or inactive are those of the source. Some results are limits rather than exact numbers.

Chain of MAP kinase-activated protein kinase 2 (P49137 whole entry): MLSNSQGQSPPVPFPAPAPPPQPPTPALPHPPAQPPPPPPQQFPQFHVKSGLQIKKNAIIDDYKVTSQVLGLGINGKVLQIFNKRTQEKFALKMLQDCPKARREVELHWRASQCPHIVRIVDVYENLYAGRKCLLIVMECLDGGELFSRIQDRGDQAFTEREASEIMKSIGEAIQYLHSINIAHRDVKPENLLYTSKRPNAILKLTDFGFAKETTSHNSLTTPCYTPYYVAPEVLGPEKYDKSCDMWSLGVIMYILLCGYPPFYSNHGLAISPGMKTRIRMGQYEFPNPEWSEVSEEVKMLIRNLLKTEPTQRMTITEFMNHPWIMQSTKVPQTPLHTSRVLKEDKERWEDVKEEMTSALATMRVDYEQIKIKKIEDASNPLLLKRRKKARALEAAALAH
Chain of Nonstructural protein 1 (Q194T2 whole entry, the tested form may be a part): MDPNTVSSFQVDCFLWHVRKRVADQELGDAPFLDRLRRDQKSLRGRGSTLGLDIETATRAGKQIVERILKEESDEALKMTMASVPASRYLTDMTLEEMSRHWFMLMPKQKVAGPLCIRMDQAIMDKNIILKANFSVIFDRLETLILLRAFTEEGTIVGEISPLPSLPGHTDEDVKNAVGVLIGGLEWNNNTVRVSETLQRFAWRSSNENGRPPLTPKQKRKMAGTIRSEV
Chain of Fibroblast growth factor receptor 1 (P11362 whole entry): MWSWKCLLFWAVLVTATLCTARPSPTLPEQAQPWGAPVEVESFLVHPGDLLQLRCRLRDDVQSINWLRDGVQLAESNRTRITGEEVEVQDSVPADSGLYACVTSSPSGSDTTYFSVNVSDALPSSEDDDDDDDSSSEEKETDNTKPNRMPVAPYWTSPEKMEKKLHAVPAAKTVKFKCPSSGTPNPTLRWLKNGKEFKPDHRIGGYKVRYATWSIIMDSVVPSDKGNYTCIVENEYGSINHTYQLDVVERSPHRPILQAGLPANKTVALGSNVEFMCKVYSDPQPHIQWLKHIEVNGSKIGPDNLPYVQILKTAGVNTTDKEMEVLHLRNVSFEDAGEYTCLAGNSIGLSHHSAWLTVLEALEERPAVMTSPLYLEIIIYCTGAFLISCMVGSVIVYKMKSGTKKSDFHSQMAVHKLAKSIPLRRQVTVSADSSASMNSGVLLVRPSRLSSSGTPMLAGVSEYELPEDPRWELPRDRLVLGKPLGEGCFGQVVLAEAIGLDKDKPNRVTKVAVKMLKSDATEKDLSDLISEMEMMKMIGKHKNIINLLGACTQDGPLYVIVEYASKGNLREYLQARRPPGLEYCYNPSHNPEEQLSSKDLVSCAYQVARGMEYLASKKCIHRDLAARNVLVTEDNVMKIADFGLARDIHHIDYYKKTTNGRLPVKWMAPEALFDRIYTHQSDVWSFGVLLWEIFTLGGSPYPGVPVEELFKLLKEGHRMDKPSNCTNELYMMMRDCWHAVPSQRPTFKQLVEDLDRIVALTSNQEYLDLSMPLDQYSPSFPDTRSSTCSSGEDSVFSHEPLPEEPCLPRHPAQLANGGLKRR
Chain of LIM domain kinase 1 (P53667 whole entry, the tested form may be a part): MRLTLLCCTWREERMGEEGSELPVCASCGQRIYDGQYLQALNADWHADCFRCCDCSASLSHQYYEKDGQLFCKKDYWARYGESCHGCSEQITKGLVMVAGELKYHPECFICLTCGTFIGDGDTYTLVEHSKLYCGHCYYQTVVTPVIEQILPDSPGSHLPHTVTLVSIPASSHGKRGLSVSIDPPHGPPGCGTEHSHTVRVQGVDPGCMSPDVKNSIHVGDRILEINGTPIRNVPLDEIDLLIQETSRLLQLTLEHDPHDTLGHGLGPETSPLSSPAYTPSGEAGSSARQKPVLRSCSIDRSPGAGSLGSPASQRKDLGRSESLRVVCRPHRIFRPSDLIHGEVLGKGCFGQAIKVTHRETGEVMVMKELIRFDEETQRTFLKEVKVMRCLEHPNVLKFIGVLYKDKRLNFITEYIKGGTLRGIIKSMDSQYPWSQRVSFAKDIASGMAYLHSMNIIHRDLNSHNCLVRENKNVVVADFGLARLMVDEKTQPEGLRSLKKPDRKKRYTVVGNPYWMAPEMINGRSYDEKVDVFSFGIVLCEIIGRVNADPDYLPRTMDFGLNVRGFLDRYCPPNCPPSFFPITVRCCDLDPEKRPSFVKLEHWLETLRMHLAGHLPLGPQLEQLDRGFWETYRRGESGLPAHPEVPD
Chain of RAC-gamma serine/threonine-protein kinase (Q9Y243 whole entry): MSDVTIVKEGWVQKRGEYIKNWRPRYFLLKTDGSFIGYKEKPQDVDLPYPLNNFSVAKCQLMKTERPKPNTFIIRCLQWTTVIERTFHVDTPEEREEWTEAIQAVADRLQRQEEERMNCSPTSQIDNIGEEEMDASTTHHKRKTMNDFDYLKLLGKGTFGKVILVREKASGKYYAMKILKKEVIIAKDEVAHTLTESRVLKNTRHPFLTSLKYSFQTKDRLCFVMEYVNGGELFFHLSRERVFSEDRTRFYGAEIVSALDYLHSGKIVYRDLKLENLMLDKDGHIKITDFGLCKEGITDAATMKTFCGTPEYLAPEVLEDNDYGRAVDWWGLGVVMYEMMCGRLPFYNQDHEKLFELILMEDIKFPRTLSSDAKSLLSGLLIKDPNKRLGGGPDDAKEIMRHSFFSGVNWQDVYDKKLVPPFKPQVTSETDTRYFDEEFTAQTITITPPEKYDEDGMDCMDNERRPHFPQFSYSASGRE
Chain of Interleukin-1 receptor-associated kinase 4 (Q9NWZ3 whole entry): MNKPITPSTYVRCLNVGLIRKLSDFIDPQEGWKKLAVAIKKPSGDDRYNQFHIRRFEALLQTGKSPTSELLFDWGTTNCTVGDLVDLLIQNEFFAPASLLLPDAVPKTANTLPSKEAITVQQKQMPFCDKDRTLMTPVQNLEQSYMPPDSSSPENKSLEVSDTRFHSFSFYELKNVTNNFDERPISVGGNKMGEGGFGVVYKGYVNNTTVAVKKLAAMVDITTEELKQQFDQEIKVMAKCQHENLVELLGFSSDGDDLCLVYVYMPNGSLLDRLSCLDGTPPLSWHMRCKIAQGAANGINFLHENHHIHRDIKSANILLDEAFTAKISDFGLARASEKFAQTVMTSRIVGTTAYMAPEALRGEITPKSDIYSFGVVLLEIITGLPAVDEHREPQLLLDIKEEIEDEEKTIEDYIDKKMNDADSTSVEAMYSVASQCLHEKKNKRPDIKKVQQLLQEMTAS
Chain of Calcium/calmodulin-dependent protein kinase type II subunit alpha (Q9UQM7 whole entry): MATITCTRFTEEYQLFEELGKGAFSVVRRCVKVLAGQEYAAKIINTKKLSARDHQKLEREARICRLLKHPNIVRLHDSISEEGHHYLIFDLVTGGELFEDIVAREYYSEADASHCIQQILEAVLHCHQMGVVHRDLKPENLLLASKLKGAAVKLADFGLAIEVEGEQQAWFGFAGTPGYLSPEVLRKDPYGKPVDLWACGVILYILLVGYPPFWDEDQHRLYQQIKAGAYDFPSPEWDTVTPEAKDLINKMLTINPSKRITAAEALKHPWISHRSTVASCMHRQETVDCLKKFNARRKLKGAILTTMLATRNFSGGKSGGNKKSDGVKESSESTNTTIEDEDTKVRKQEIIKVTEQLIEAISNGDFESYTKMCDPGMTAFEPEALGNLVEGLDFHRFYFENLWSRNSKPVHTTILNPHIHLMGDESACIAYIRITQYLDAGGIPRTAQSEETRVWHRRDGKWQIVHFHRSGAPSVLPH
Chain of Large T antigen (P03070 whole entry): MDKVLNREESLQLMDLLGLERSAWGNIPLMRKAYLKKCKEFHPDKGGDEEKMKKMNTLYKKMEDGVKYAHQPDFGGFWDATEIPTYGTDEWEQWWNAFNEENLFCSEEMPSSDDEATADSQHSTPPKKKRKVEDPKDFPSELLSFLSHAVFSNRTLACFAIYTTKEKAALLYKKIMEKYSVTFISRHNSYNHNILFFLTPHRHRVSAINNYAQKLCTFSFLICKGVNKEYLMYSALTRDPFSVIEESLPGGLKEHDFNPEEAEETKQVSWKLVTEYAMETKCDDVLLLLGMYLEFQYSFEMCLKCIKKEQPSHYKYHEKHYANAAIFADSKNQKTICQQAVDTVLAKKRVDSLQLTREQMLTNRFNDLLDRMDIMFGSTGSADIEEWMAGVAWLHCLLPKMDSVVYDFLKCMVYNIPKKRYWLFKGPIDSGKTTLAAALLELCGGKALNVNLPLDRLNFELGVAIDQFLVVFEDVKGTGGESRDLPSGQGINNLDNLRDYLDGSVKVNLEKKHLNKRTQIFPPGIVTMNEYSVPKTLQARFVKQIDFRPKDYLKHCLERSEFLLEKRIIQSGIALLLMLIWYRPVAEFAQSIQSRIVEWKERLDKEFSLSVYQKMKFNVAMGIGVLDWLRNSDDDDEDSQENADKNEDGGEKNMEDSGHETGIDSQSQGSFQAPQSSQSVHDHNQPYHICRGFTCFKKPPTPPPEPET
Chain of Tyrosine-protein kinase Lyn (P07948 whole entry): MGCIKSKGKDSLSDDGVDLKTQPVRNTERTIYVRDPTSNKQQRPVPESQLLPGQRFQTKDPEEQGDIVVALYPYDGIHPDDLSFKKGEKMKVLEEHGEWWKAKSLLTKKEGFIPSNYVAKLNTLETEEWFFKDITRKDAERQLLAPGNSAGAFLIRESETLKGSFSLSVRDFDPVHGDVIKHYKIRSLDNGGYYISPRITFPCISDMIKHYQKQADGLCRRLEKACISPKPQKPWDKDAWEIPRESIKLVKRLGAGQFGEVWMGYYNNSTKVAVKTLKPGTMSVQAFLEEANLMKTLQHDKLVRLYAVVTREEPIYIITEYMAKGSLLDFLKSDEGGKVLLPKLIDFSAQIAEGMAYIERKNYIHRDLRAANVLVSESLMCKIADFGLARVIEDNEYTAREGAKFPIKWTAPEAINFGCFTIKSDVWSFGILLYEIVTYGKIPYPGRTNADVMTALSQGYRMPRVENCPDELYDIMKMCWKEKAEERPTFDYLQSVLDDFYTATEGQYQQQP

Turning to `COc1cccc2c1NC(C(=O)O)C1CC=CC21` (configuration not stated), the concentration for half-maximal inhibition (IC50) in experiment [1] was 13.1 µM (active); in [2] it was > 10 µM (not active); in [4], 42.5 µM (active). In addition, in [3], the half-maximal activity concentration (AC50) was 35.8 µM (active).
Regarding `CCc1ccc(S(=O)(=O)/N=C2\C=C(Nc3ccc(O)cc3)C(=O)c3ccccc32)cc1`, the IC50 in experiment [5] is 5.88 µM (active).
Regarding `COc1c(-c2nc3ccccc3[nH]2)c(O)cc2oc(C)cc(=O)c12`, the Ki was 0.0316 µM (active) in experiment [6], 1 µM (active) in [7] and 0.501 µM (active) in [8].
With `Cc1ccc(F)c(NC(=O)Nc2ccc(-c3cccc4[nH]nc(N)c34)cc2)c1` [LINIFANIB], the Ki is > 7.94 µM (inactive) in [9], > 10 µM (inactive) in [10], 0.251 µM (active) in experiment [11] and 2.51 µM (active) in experiment [12].
